From patent publication US7618984B2, “Sulfonamide compound” (Asahi Kasei Pharma Corporation, priority 2005, dated 2009)
Structures can show the parent of a compound that is named as a salt.

Key:
[1] = system: rabbit intraocular pressure; test: Rabbit intraocular pressure reduction enhancing action, combination use (Test Example 6-1); format: in vivo, Japanese white rabbit; conditions: 50 μL, difference of left and right eyes, 2, 4 and 6 hours
Protocol: However, the effect is not limited to the 19-1 compound, and the ophthalmic solution concentration of the 19-1 compound is not limited to those used in this test example. Moreover, as for the test compound used for combination use, similar effect can be obtained also with the compounds of the present invention represented with the example numbers mentioned in Test Example 2.
As a test compound, the 19-1 compound was dissolved in physiological saline, and the solution was neutralized by addition of sodium hydroxide (pH 7.0 to 8.0) to prepare a 0.01 weight % aqueous solution (19-1 compound aqueous solution). As the drugs for combination use, isopropyl unoprostone (trade name: Rescula, Santen Pharmaceutical) was used as a prostaglandin-related drug, and brinzolamide hydrochloride (trade name: Azopt, Alcon Japan) was used as […], as the marketed formulations as they were.
A Japanese white rabbit having a body weight of about 2 kg was placed in a positioner and naturalized for one week before the experiment. An opthalmologic local anesthesant (Benoxil) was administered to both eyes, and then intraocular pressure before instillation was measured by using a tonometer (Classic 30, Solan). A test aqueous solution or the drug for combination use was administered to the left eye, and the right eye was not treated (control eye). The test groups consisted of (1) control group, (2) group instilled only with the 19-1 compound aqueous solution (single drug group 1), (3) group instilled only with the drug for combination use (single drug group 2), and (4) group instilled with the drug for combination use and the 19-1 compound aqueous solution (combination use group), and six rabbits were used for each group. As for the rabbits of these groups, 50 μL of physiological saline was first instilled to the control group, single drug group 1, and single drug group 2, and the drug for combination use was first instilled in the same volume to the combination use group. […] The intraocular pressure thereafter was measured for each group 2, 4 and 6 hours after the second administration of the test compound, and the difference of the measured values for the left and right eyes at each measurement time was considered an intraocular pressure reduction value of each group. The largest difference of the intraocular pressure values for the left and right eyes among those of the measured values of the measurement times was considered the maximum intraocular pressure reduction value (max ΔIOP) of each drug group.

[2] = system: rabbit intraocular pressure; test: Rabbit intraocular pressure reduction enhancing action, combination with timolol maleate (Test Example 6-2); format: in vivo, Japanese white rabbit; conditions: 0.01 weight % 19-1 compound aqueous solution and/or timolol maleate (Timoptol), 50 μL; difference relative to the control group, 1, 2 and 4 hours
Protocol: As a test compound, the 19-1 compound was dissolved in physiological saline, and the solution was neutralized by addition of sodium hydroxide (pH 7.0 to 8.0) to prepare a 0.01 weight % aqueous solution (19-1 compound aqueous solution). As a drug for combination use, timolol maleate (trade name: Timoptol, Santen Pharmaceutical) was used as an adrenergic receptor β blocker, as the marketed formulation as it was.
A Japanese white rabbit having a body weight of about 2 kg was placed in a positioner and naturalized for one week before the experiment. An opthalmologic local anesthesant (Benoxil) was administered to both eyes, and then intraocular pressure before instillation was measured by using a tonometer (Classic 30, Solan). […] The intraocular pressure thereafter was measured for each group 1, 2 and 4 hours after the second administration of the test compound, and the difference of the measured values at each measurement time for the each group and the control group was considered an intraocular pressure reduction value of each group. The largest difference of the intraocular pressure values relative to the control group among those of the measured values of the measurement times was considered the maximum intraocular pressure reduction value (max ΔIOP) of each drug group.

[3] = system: phosphorylation of myosin regulatory light chain; test: Inhibitory action on phosphorylation of myosin regulatory light chain (Test Example 1); format: cell-based; conditions: Neutrophil, 5 min; human peripheral blood neutrophils, 25° C. for 5 minutes; read-out: IC50, compound concentration providing a phosphorylation inhibition ratio of 50% (myosin regulatory light chain)
Protocol: A volume of 50 to 100 ml of peripheral blood collected from healthy volunteers was centrifuged by using Mono-Poly separator solution (Dainippon Pharmaceutical) to prepare a neutrophil containing fraction. The neutrophils were washed with PBS(−) and resuspended in Hanks' Balanced Salt Solution (HBSS+, Gibco) to prepare a cell suspension (8×10^6/ml). The cell suspension was diluted to 5×10^6/ml, introduced into Eppendorf tubes in a volume of 0.4 ml each, then 0.1 ml each of solutions of a test compound at various concentrations were added to the suspension and allowed to react at 25° C. for 5 minutes. After the reaction, 0.1 ml of trichloroacetic acid solution was added to each reaction mixture, the reaction mixture was gently shaken and centrifuged at 12,000 rpm (4° C., 5 minutes), and the supernatant was removed. Subsequently, 3 μl of 1 M Tris solution was added to the residue, the mixture was further mixed with 50 μl of extraction buffer (8 M urea, 0.02% 2-mercaptoethanol, 0.002% bromophenol blue) and left stand at room temperature for 1 hour. Then, the reaction mixture was loaded on a spin column (0.45 μm, Millipore) to remove the insoluble solids and a sample buffer for SDS polyacrylamide gel electrophoresis (25 mM, Tris-HCl pH 6.8, 2.5% 2-mercaptoethanol, 2% sodium dodecylsulfate, 5% sucrose, 0.002% bromophenol blue as final concentrations) was added, and 10 μl of each sample was subjected to electrophoresis.
The gel after the electrophoresis was blotted on a nitrocellulose membrane (BioRad), blocked with 5% skim milk, and reacted successively with antibodies pLC1 (Sakurada K. et al, Am. J. Physiol., 274, C1563-C1572 (1998)), which specifically recognize the phosphorylated myosin regulatory light chain, and donkey anti-mouse IgG (Chemicon) conjugated with horseradish peroxidase. The band of the phosphorylated myosin regulatory light chain was detected on a film by using ECL Plus Kit (Amersham Pharmacia Biotech). This band was subjected to quantification using a densitometer. By using this value, the inhibitory ratio (%) for phosphorylation of the myosin regulatory light chain was calculated by using the following equation. Phosphorylation inhibition ratio(%)=1−(Band intensity of phosphorylated myosin regulatory light chain with addition of the test compound/Band intensity of phosphorylated myosin regulatory light chain without addition of the test compound)×100
Further, the phosphorylation inhibition ratio was calculated with changing the concentrations of the test compound, and a compound concentration providing an inhibition ratio of 50% was obtained as IC50.

[4] = system: rabbit normal intraocular pressure; test: Intraocular pressure reducing action (Test Example 2); format: in vivo, Japanese white rabbit; conditions: Oryctolagus cuniculus, topical; 3 mM aqueous solution, 50 μl to the left eye; measured after 2, 4 and 6 hours; read-out: intraocular pressure reducing degree (max ΔIOP / intraocular pressure value immediately before administration × 100)
Protocol: A Japanese white rabbit having a body weight of about 2 kg was placed in a positioner and naturalized for one week before the experiment. An opthalmologic local anesthesant (Benoxil) was administered to both eyes, and then intraocular pressure was measured by using a tonometer (Classic 30, Solan). A 3 mM aqueous solution of a test compound was administered in a volume of 50 μl to the left eye, and the right eye was not treated (control eye). The intraocular pressure values were measured for the left and right eyes immediately before, and 2, 4 and 6 hours after the administration of the aqueous solution of the test compound, and the difference of the measured values for the left and right eyes was considered an intraocular pressure reduction value of the test medicament at each measurement time. The largest difference of the values for the left and right eyes among the measured values at the measurement times (after 2, 4 and 6 hours) was considered the maximum intraocular pressure reduction value (max ΔIOP) of each test medicament. The intraocular pressure reducing degree representing the intraocular pressure reducing action of each test medicament was calculated according to the following formula. Since rabbits show significant daily variation of intraocular pressure, daily variation is added when change of intraocular pressure is measured over time, and the intraocular pressure reducing action may be overestimated. Therefore, we used this calculation method of intraocular pressure reduction value in order to minimize the influence of the variation. Intraocular pressure reducing degree (%)=(max ΔIOP/Intraocular pressure value immediately before administration)×100

neutrophils = test: Neutrophil migration inhibitory action, Boyden Chamber, FMLP (Test Example 3); format: cell-based; conditions: 0.5 h, human neutrophils, FMLP 1 μM, 37° C., 30 minutes, read-out: IC50, compound concentration providing a migration inhibition ratio of 50%
Protocol: Neutrophils were isolated from 50 to 100 ml of peripheral blood collected from healthy human donors by the method described in Test Example 1 to obtain a cell suspension (8×10^6/ml). Subsequently, solutions of a test compound at various concentrations were introduced into wells of a 96-well plate in a volume of 125 μl per well, the cell suspension of an equivalent volume was added to it and the plate was preincubated at room temperature for 5 minutes. During the preincubation, FMLP (1 μM, Sigma) solution was added to the lower chamber to set Boyden Chamber, the preincubated cell suspension was added to the upper chamber in a volume of 200 μl per well, and the cells were allowed to migrate at 37° C. under 5% carbon dioxide for 30 minutes. The filter after the migration was collected, and the non-migrated cells adhered to the surface that faced the upper chamber were carefully wiped off. Then, the migrated cells on the back surface were stained with DifQuick dye solution (International Reagents), washed with water and dried, and then absorbance was measured at 595 nm. The inhibition ratio against migration (%) of a test compound was calculated by using the following equation: Migration inhibition ratio(%)=(1−Absorbance of the group with addition of test compound/Absorbance of the group without addition of test compound)×100
Further, the migration inhibitory ratio was calculated with changing the test compound concentration, and a compound concentration providing an inhibition ratio of 50% was obtained as IC50.

IC50 [3] [µM]	IC50 (neutrophils) [µM]	Structure (SMILES)	Max ΔIOP (maximum intraocular pressure reduction value), Table 2 ([1]; 0.01 weight % 19-1 compound aqueous solution and/or brinzolamide hydrochloride (Azopt)) [mmHg]	Max ΔIOP (maximum intraocular pressure reduction value), Table 4 [2] [mmHg]	inhibition in vivo at 3000 µM [4] [%]	Max ΔIOP (maximum intraocular pressure reduction value), Table 3 ([1]; 0.01 weight % 19-1 compound aqueous solution and/or isopropyl unoprostone (Rescula)) [mmHg]
–	–	CCN[C@H]1CN(CCCOC)S(=O)(=O)c2sc(S(N)(=O)=O)cc21 [brinzolamide hydrochloride, reference compound]	2.3	–	–	–
–	–	CC(C)(C)NC[C@H](O)COc1nsnc1N1CCOCC1 [timolol maleate, reference compound]	–	1.9	–	–
< 10	10 to 40	N[C@H]1CCN(S(=O)(=O)c2cccc3cncc(C4CC4)c23)C1 [Example 11-1, (S)-3-Amino-1-(4-cyclopropyl-5-isoquinolinesulfonyl)pyrrolidine]	–	–	5 to 10	–
< 10	10 to 40	C#Cc1cncc2cccc(S(=O)(=O)N3CC[C@H](N)C3)c12 [Example 10-1, (S)-3-Amino-1-(4-ethynyl-5-isoquinolinesulfonyl)pyrrolidine]	–	–	≥ 20	–
< 10	< 10	Cc1cnc(O)c2cccc(S(=O)(=O)N3CC[C@H](N)C3)c12 [Example 25-1, (S)-3-Amino-1-(1-hydroxy-4-methyl-5-isoquinolinesulfonyl)pyrrolidine]	–	–	10 to 20	–
< 10	10 to 40	Cc1cncc2cccc(S(=O)(=O)N3CCC[C@@H](N)C3)c12 [Example 22-2, (R)-3-Amino-1-(4-methyl-5-isoquinolinesulfonyl)piperidine]	–	–	10 to 20	–
< 10	10 to 40	N[C@@H]1CCN(S(=O)(=O)c2cccc3cncc(Cl)c23)C1 [Example 19-2, (R)-3-Amino-1-(4-chloro-5-isoquinolinesulfonyl)pyrrolidine]	–	–	≥ 20	–
< 10	10 to 40	N[C@H]1CCN(S(=O)(=O)c2cccc3cncc(Br)c23)C1 [Example 1-1, (S)-3-Amino-1-(4-bromo-5-isoquinolinesulfonyl)pyrrolidine]	–	–	≥ 20	–
–	–	CCCCCCCC(=O)CC[C@@H]1[C@@H](C/C=C\CCCC(=O)OC(C)C)[C@@H](O)C[C@H]1O [isopropyl unoprostone, reference compound]	–	–	–	4.4
< 10	10 to 40	CCc1cncc2cccc(S(=O)(=O)N3CC[C@H](N)C3)c12 [Example 23-1, (S)-3-Amino-1-(4-ethyl-5-isoquinolinesulfonyl)pyrrolidine]	–	–	10 to 20	–
